In brackets after ≈: the same amount, converted by molar mass.
Key:
[1] = test system: human colonic cancer cells (SW1116); experiment: growth-inhibitory effect on human colonic cancer cells, dye exclusion method; type: cell-based; details: SW 1116
Procedure: The growth-inhibitory effects of the compound of the present invention on mouse colonic cancer cells (Colon 26) and human colonic cancer cells (SW1116) were examined. A 96-well plate was inoculated with mouse colonic cancer cells at a ratio of 1.5×10^3 cells per well, while another 96-well plate was inoculated with human colonic cancer cells at a ratio of 3.0×10^3 per well. These cells were incubated in an incubator at 37° C. under 5% CO2 for 24 hours. Then the compound of the present invention was added thereto at various concentrations. Cells in each well were counted by the dye exclusion method 65 hours and 96 hours after the addition to thereby evaluate the growth-inhibitory effect of the test compound on the mouse colonic cancer cells and that on the human colonic cancer cells.

[2] = test system: bovine adrenal capillary endothelial cells; experiment: growth-inhibitory effect on endothelial cells, Coulter counter; type: cell-based; details: Bos taurus, Endothelial cell, 72 h, three days
Procedure: The growth-inhibitory effect of the compound of the present invention on endothelial cells was examined. A 96-well plate was inoculated with bovine adrenal capillary endothelial cells at a ratio of 1×10^4 cells per well. One day after the inoculation, the compound of the present invention was added thereto at various concentrations. Cells in each well were counted with a Coulter counter three days after the addition to thereby evaluate the growth-inhibitory effect of the test compound on the capillary endothelial cells. […] Thus the IC50 of the compound of the present invention on the endothelial cells was 0.0003 μg/ml, showing a strong growth-inhibitory effect.

[3] = test system: mouse melanoma cells (B16); experiment: growth-inhibitory effect on mouse melanoma cells, dye exclusion method; type: cell-based; details: 72 hours
Procedure: (§1) The growth-inhibitory effects of the compound of the present invention on mouse melanoma cells (B16) and human melanoma cells (G361) were examined. A 96-well plate was inoculated with mouse melanoma cells at a ratio of 1.5×10^3 cells per well, while another 96-well plate was inoculated with human melanoma cells at a ratio of 1.0×10^3 per well. These cells were incubated in an incubator at 37° C. under 5% CO2. Then the compound of the present invention was added thereto at various concentrations. Cells in each well were counted by the dye exclusion method 72 hours after the addition to thereby evaluate the growth-inhibitory effect of the test compound on the mouse melanoma cells and that on the human melanoma cells at various concentrations.

[4] = test system: human pulmonary cancer cells (PC-3); experiment: growth-inhibitory effect on human pulmonary cancer cells, dye exclusion method; type: cell-based; details: 72 h, three days
Procedure: (§2) the growth-inhibitory effects of the compound of the present invention on mouse pulmonary cancer cells (LL) and human plumonary cancer cells (PC-3) were examined.
(§3) A 96-well plate was inoculated with mouse polmonary cancer cells at a ratio of 8.0×10^2 cells per well, while another 96-well plate was inoculated with human pulmonary cancer cells at a ratio of 2.5×10^3 per well. These cells were incubated in an incubator at 37° C. under 5% CO2 for 24 hours. Then the compound of the present invention was added thereto at various concentrations. Cells in each well were counted by the dye exclusion method three days after the addition to thereby evaluate the growth-inhibitory effect of the test compound on the mouse pulmonary cancer cells (LL) and that on the human pulmonary cancer cells (PC-3).

[5] = test system: mouse pulmonary cancer cells (LL); experiment: growth-inhibitory effect on mouse pulmonary cancer cells, dye exclusion method; type: cell-based; details: 72 h, three days
Procedure: as §2, §3

[6] = test system: two-spoted spider mite acarids (a Kelthane-resistant species); experiment: insecticidal action, mortality of two-spoted spider mite imagos; type: in vivo; details: after 2 days
Procedure: The insecticidal action of the compound of the present invention was examined by the following method.
(1) An imago of two-spoted spider mite acarids (a Kelthane-resistant species) was used as a test vermin, and the mortality rate thereof was assaYed according to an ordinary method (described on page 327 of "NoYaku Seibutsu Kenteiho" edited by Toyoji Hosotsuji).
Specifically, a solution of the compound of the present invention in acetone (0.1%) was added to 0.5 ml of an aqueous sucrose solution (1%) to have a predetermined concentration. Ten two-spoted spider mite acarids were released in a vessel (20-ml beaker), and the vessel was covered with a paraffin film. The agent solution prepared above was put on the paraffin film, and another praffin film was put thereon. The beaker was allowed to stand in a thermostatic chamber (20°±1° C.) for a predetermined period of time, and the life and death of the test vermin were investigated.

[7] = test system: Botrytis cinera; experiment: antifungal spectrum on potato sucrose agar medium; type: cell-based; details: read-out: Minimum inhibitory concentration
Description: the antifungal spectrum of the compound of the present invention was examined.
(*) potato sucrose agar medium was used.

[8] = test system: human melanoma cells (G361); experiment: growth-inhibitory effect on human melanoma cells, dye exclusion method; type: cell-based; details: G-361, 72 hours
Procedure: as §1

CCC1/C=C/C=C/CC(C)C(O)C(C)(O)C(=O)C(C)C(O)C(C)C(=O)C(C)C(O)C(C)/C=C/C(=O)OC2C(C)C(CC1)OC1(CCC(C)C(CC(C)O)O1)C2CC (stereo not drawn) [NK130119]
inhibition at 0.0006 µg/mL ([1]; Homo sapiens, SW1116, 0.0006 μg/ml, read-out: Growth-inhibitory ratio): 2.29% | inhibition at 0.0024 µg/mL ([1]; Homo sapiens, SW1116, 0.0024 μg/ml, read-out: Growth-inhibitory ratio): -1.4% | inhibition at 0.0098 µg/mL ([1]; Homo sapiens, SW1116, 0.0098 μg/ml, read-out: Growth-inhibitory ratio): -0.24% | inhibition at 0.039 µg/mL ([1]; Homo sapiens, SW1116, 0.039 μg/ml, read-out: Growth-inhibitory ratio): 50.7% | inhibition at 0.156 µg/mL ([1]; Homo sapiens, SW1116, 0.156 μg/ml, read-out: Growth-inhibitory ratio): 50.3% | inhibition at 0.625 µg/mL ([1]; Homo sapiens, SW1116, 0.625 μg/ml, read-out: Growth-inhibitory ratio): 47.8% | inhibition at 2.5 µg/mL ([1]; Homo sapiens, SW1116, 2.5 μg/ml, read-out: Growth-inhibitory ratio): 47.2% | inhibition at 10 µg/mL ([1]; Homo sapiens, SW1116, 10 μg/ml, read-out: Growth-inhibitory ratio): 80.2% | IC50 ([1]; human colonic cancer cells (SW1116), cells counted 65 hours and 96 hours after addition): 2.8 µg/mL (≈ 3.48 µM) | IC50 ([2]; bovine adrenal capillary endothelial cells): 0.0003 µg/mL (≈ 0.000373 µM) | inhibition at 0.000128 µg/mL ([2]; endothelial cells, 0.000128 μg/ml, read-out: Growth-inhibitory ratio): 35.2% | inhibition at 0.00064 µg/mL ([2]; endothelial cells, 0.00064 μg/ml, read-out: Growth-inhibitory ratio): 62.9% | inhibition at 0.0032 µg/mL ([2]; endothelial cells, 0.0032 μg/ml, read-out: Growth-inhibitory ratio): 77.9% | inhibition at 0.016 µg/mL ([2]; endothelial cells, 0.016 μg/ml, read-out: Growth-inhibitory ratio): 90.1% | inhibition at 0.0006 µg/mL ([3]; Mus musculus, B16, 0.0006 μg/ml, read-out: Growth-inhibitory ratio): 0.63% | inhibition at 0.0024 µg/mL ([3]; Mus musculus, B16, 0.0024 μg/ml, read-out: Growth-inhibitory ratio): 0.63% | inhibition at 0.0097 µg/mL ([3]; Mus musculus, B16, 0.0097 μg/ml, read-out: Growth-inhibitory ratio): 1.32% | inhibition at 0.039 µg/mL ([3]; Mus musculus, B16, 0.039 μg/ml, read-out: Growth-inhibitory ratio): 34.2% | inhibition at 0.156 µg/mL ([3]; Mus musculus, B16, 0.156 μg/ml, read-out: Growth-inhibitory ratio): 45.9% | inhibition at 0.625 µg/mL ([3]; Mus musculus, B16, 0.625 μg/ml, read-out: Growth-inhibitory ratio): 49.7% | inhibition at 2.5 µg/mL ([3]; Mus musculus, B16, 2.5 μg/ml, read-out: Growth-inhibitory ratio): 79% | inhibition at 10 µg/mL ([3]; Mus musculus, B16, 10 μg/ml, read-out: Growth-inhibitory ratio): 101% | IC50 ([3]; mouse melanoma cells (B16)): 0.64 µg/mL (≈ 0.795 µM) | IC50 ([4]; human pulmonary cancer cells (PC-3)): 2 µg/mL (≈ 2.48 µM) | inhibition at 0.0006 µg/mL ([4]; Homo sapiens, PC-3, 0.0006 μg/ml, read-out: Growth-inhibitory ratio): 0.8% | inhibition at 0.0024 µg/mL ([4]; Homo sapiens, PC-3, 0.0024 μg/ml, read-out: Growth-inhibitory ratio): 1.4% | inhibition at 0.0098 µg/mL ([4]; Homo sapiens, PC-3, 0.0098 μg/ml, read-out: Growth-inhibitory ratio): 6.2% | inhibition at 0.039 µg/mL ([4]; Homo sapiens, PC-3, 0.039 μg/ml, read-out: Growth-inhibitory ratio): 22.6% | inhibition at 0.156 µg/mL ([4]; Homo sapiens, PC-3, 0.156 μg/ml, read-out: Growth-inhibitory ratio): 21.3% | inhibition at 0.625 µg/mL ([4]; Homo sapiens, PC-3, 0.625 μg/ml, read-out: Growth-inhibitory ratio): 28% | inhibition at 2.5 µg/mL ([4]; Homo sapiens, PC-3, 2.5 μg/ml, read-out: Growth-inhibitory ratio): 54.3% | inhibition at 10 µg/mL ([4]; Homo sapiens, PC-3, 10 μg/ml, read-out: Growth-inhibitory ratio): 91.5% | IC50 ([5]; mouse pulmonary cancer cells (LL)): 0.0085 µg/mL (≈ 0.0106 µM) | inhibition at 0.0006 µg/mL ([5]; mouse pulmonary cancer cells, 0.0006 μg/ml, read-out: Growth-inhibitory ratio): 21.6% | inhibition at 0.0024 µg/mL ([5]; mouse pulmonary cancer cells, 0.0024 μg/ml, read-out: Growth-inhibitory ratio): 14.5% | inhibition at 0.0098 µg/mL ([5]; mouse pulmonary cancer cells, 0.0098 μg/ml, read-out: Growth-inhibitory ratio): 54.4% | inhibition at 0.039 µg/mL ([5]; mouse pulmonary cancer cells, 0.039 μg/ml, read-out: Growth-inhibitory ratio): 61% | inhibition at 0.156 µg/mL ([5]; mouse pulmonary cancer cells, 0.156 μg/ml, read-out: Growth-inhibitory ratio): 66.2% | inhibition at 0.625 µg/mL ([5]; mouse pulmonary cancer cells, 0.625 μg/ml, read-out: Growth-inhibitory ratio): 68.8% | inhibition at 2.5 µg/mL ([5]; mouse pulmonary cancer cells, 2.5 μg/ml, read-out: Growth-inhibitory ratio): 83.7% | inhibition at 10 µg/mL ([5]; mouse pulmonary cancer cells, 10 μg/ml, read-out: Growth-inhibitory ratio): 102% | Mortality rate, imagos of two-spoted spider mite ([6]; 1 ppm): 20% | Mortality rate, imagos of two-spoted spider mite ([6]; 10 ppm): 60% | Mortality rate, imagos of two-spoted spider mite ([6]; 100 ppm): 100% | MIC [7]: 6.25 µg/mL (≈ 7.76 µM) | IC50 ([8]; human melanoma cells (G361)): 1.63 µg/mL (≈ 2.02 µM) | inhibition at 0.0006 µg/mL ([8]; Homo sapiens, G361, 0.0006 μg/ml, read-out: Growth-inhibitory ratio): -2.01% | inhibition at 0.0024 µg/mL ([8]; Homo sapiens, G361, 0.0024 μg/ml, read-out: Growth-inhibitory ratio): 5.3% | inhibition at 0.0097 µg/mL ([8]; Homo sapiens, G361, 0.0097 μg/ml, read-out: Growth-inhibitory ratio): 10.8% | inhibition at 0.039 µg/mL ([8]; Homo sapiens, G361, 0.039 μg/ml, read-out: Growth-inhibitory ratio): 29.6% | inhibition at 0.156 µg/mL ([8]; Homo sapiens, G361, 0.156 μg/ml, read-out: Growth-inhibitory ratio): 33.9% | inhibition at 0.625 µg/mL ([8]; Homo sapiens, G361, 0.625 μg/ml, read-out: Growth-inhibitory ratio): 36% | inhibition at 2.5 µg/mL ([8]; Homo sapiens, G361, 2.5 μg/ml, read-out: Growth-inhibitory ratio): 56.2% | inhibition at 10 µg/mL ([8]; Homo sapiens, G361, 10 μg/ml, read-out: Growth-inhibitory ratio): 89.6%
